Measurements reported in patent US12459951B2, “Compounds that interact with RAS superfamily proteins for treatment of cancers, inflammatory diseases, rasopathies, and fibrotic disease” (SHY Therapeutics, LLC, priority 2022, dated 2025).

What was measured:
Parameters in all cases: species or system human
[1] = test system: active/cleaved caspase 3; assay: Cell-based caspase activation assay (western blot)
Method: (§1) Biological Example 4: Puma Expression and Caspases Activation Assay
(§2) Protocols for Cell-Based Puma Expression and Caspase Activation Assays
(§3) Cell lines: All human tumor-derived cancer cell lines were purchased from American Type Culture Collection. Human tumor-derived cancer cell lines Panc-1 (expressing KRas G12D mutant), MiaPaca-2 (expressing KRas G12C mutant), A549 (expressing KRas G12S mutant), and A375 (expressing wild type KRas) were grown in complete DMEM-High Glucose medium and NCI-H1975 (expressing wild type KRas), MM.1R (expressing wild type KRas) and IM.9 (expressing wild type KRas) were grown in RPMI1640 medium. Human tumor-derived cancer cell line BT-549 (expressing wild type KRas) was grown in RPMI1640 medium with 11.8U insulin. All mediums were supplemented with penicillin (100 U/mL), streptomycin (100 μg/mL), and 10% heat-inactivated FBS at 37° C. in a humidified incubator with 5% CO2.
(§4) Method: Cells were plated at 300,000 to 800,000 cells/well density in a 6-well plate in the presence of 10% FBS. The next day small molecules to be tested were added to the cells in the final concentration of 3 μM in the presence of 0.3% DMSO for 48 hours incubation at 37° C. For IC50 value determination, serial dilutions of compounds were added to cells under the same conditions. Following 48 hours of incubation cells were lysed with lysis buffer containing 1% Triton X-100, EDTA, and Halt™ Protease & Phosphatase Inhibitor Cocktail (Thermo Scientific). Protein concentration was assessed by BCA protein assay (Thermo Scientific). Increase expression of PUMA and active/cleaved forms of caspase 3, caspase 6 and caspase 9 were detected by western blot.
(§5) Western blot protocol: Equal amounts of protein (15-50 μg) were separated by SDS-PAGE and transferred to nitrocellulose membranes (Invitrogen by Thermo Fisher Scientific). The membrane was stained with Ponceau S Stain (Boston BioProducts) to verify uniform protein loading. Membranes were blocked with 10% milk and expression levels of PUMA was assessed by incubating overnight at 4° C. with the antibody PUMA (D30C10) from Cell Signaling Technology (#12450) and active/cleaved forms of caspase 3, caspase 6 and caspase 9 by incubating overnight at 4° C. with the following antibodies: cleaved caspase-3 (Asp175) (5A1E), cleaved caspase-6 (Asp162) and cleaved caspase-9 (Asp330) (D2D4) (all antibodies from Cell Signaling Technology). Then the membranes were incubated with HRP-conjugated secondary antibody (Jackson Immunoresearch, West Grove, PA). Bands were incubated in Amersham ECL Prime Western Blotting Detection Reagent (GE Healthcare) and visualized using the ChemiDoc MP imaging system (Bio-Rad).

[2] = test system: active/cleaved caspase 6; assay: Cell-based caspase activation assay (western blot)
Method: as §1, §2, §3, §4, §5

[3] = test system: active/cleaved caspase 9; assay: Cell-based caspase activation assay (western blot)
Method: as §1, §2, §3, §4, §5

[4] = test system: PUMA expression; assay: Cell-based Puma expression assay (western blot)
Method: as §1, §2, §3, §4, §5

COc1ccnc(Nc2nc(-c3nccn3C)nn3cc(-c4ccn(C(C)C)n4)c(C)c23)c1 [Compound 58, 6-(1-Isopropyl-1H-pyrazol-3-yl)-N-(4-methoxypyridin-2-yl)-5-methyl-2-(1-methyl-1H-imidazol-2-yl)pyrrolo[2,1-f][1,2,4]triazin-4-amine]
yes: Caspase 3 activation ([1]; A549, after 48 hours) | Caspase 3 activation ([1]; BT-549, after 48 hours) | Caspase 3 activation ([1]; MiaPaca2, after 48 hours) | Caspase 6 activation ([2]; A549, after 48 hours) | Caspase 6 activation ([2]; BT-549, after 48 hours) | Caspase 6 activation ([2]; MiaPaca2, after 48 hours) | Caspase 9 activation ([3]; A549, after 48 hours) | Caspase 9 activation ([3]; BT-549, after 48 hours) | Caspase 9 activation ([3]; MiaPaca2, after 48 hours) | Increased PUMA expression ([4]; A549, after 48 hours) | Increased PUMA expression ([4]; BT-549, after 48 hours) | Increased PUMA expression ([4]; MiaPaca2, after 48 hours)
